Reference: publication PMC2119975 (The Journal of Cell Biology, 1994)

Assays:
[1] = test system: HT1080 human fibrosarcoma cells; assay: Cell adhesion assay, HT1080 cells; format: cell-based; details: Fig. 7 B; coating and inhibitor 100 μM; EDTA 2 mM; cells preincubated
type II alveolar cells = assay: Alveolar inhibition studies on gelled BMS; format: cell-based, rat; details: Fig. 6; cells preincubated with peptide, up to 700 μM; day five; n = 9

| Compound | Inhibition of HT1080 cell adhesion to SN-peptide [1] | Effect of tryptic peptides of SN-peptide on alveolar formation (type II alveolar cells) |
| --- | --- | --- |
| O=C(O)CN(CCN(CC(=O)O)CC(=O)O)CC(=O)O [EDTA] | inhibited |  |
| FGNMGS |  | minimal |
| WHSIYITR |  | partial |
